SMILES strings stand for the structures.

The nature of series [1]: logP determination by HPLC (EEC Directive 79/831 Annex V.A8). The class given is physicochemical. As to conditions: reversed-phase HPLC column (C 18), pH 2.3, reversed-phase column (C 18), 43° C. The method, then: The logP values given in the Preparation Examples are determined in accordance with EEC Directive 79/831 Annex V.A8 by HPLC (High Performance Liquid Chromatography) using a reversed-phase column (C 18). Temperature: 43° C.
The determination is carried out in the acidic range at pH 2.3 using the mobile phases 0.1% aqueous phosphoric acid and acetonitrile; linear gradient from 10% acetonitrile to 90% acetonitrile.
Calibration is carried out using unbranched alkan-2-ones (having 3 to 16 carbon atoms) with known logP values (determination of the logP values by the retention times using linear interpolation between two successive alkanones).

The subject of series [2] is Heliothis armigera. As to the kind of experiment: Heliothis armigera test. Type of series: in vivo. The settings on record: active compound concentration 100 ppm; after 7 days; dipped soya bean shoots.
In series [3] the test system is caterpillars of the diamondback moth (Plutella xylostella). As to the kind of experiment: Plutella test. The class given is in vivo. As to conditions: active compound concentration 100 ppm; after 7 days; dipped cabbage leaves. How it is done:
(§1) [table] To produce a suitable preparation of active compound, 1 part by weight of active compound is mixed with the stated amounts of solvent and emulsifier, and the concentrate is diluted with emulsifier-containing water to the desired concentration. Cabbage leaves (Brassica oleracea) are treated by being dipped into the preparation of active compound of the desired concentration and are populated with caterpillars of the diamondback moth (Plutella xylostella) while the leaves are still moist. After the desired period of time, the kill in % is determined. 100% means that all caterpillars have been killed; 0% means that none of the caterpillars have been killed.

Series [4] has as its system caterpillars of the armyworm (Spodoptera frugiperda). The series can be described thus: Spodoptera frugiperda test. Type of series: in vivo. As to conditions: active compound concentration 100 ppm; after 7 days; dipped cabbage leaves. The method, then:
as §1, with “armyworm (Spodoptera frugiperda)” for “diamondback moth (Plutella xylostella)”

The test system of series [5] is larvae of the mustard beetle (Phaedon cochleariae). The series can be described thus: Phaedon larvae test. The class given is in vivo. As to conditions: active compound concentration 100 ppm; after 7 days; dipped cabbage leaves. The method, then:
as §1, with “with larvae” for “with caterpillars”, “the mustard beetle (Phaedon cochleariae)” for “the diamondback moth (Plutella xylostella)”, “all beetle larvae” for “all caterpillars”, “the beetle larvae” for “the caterpillars”

In the case of `N#CCN(C(=O)N1CC(n2cc(Cl)cn2)C(c2ccc(Cl)cc2)=N1)c1ccc(Cl)cc1` (stereo not drawn) [Example 1, 3-(4-chlorophenyl)-4-(4-chloropyrazol-1-yl)-4,5-dihydro-1-pyrazolecarboxylic acid (N-cyanomethyl)-4-chloroanilide], in series [1], the chromatographic logP (usually a lipophilicity value derived from retention on a column) worked out at 3.94. The kill in series [2], in series [3], in series [4] and in series [5] was 100% in each case.

Turning to `Clc1ccc(C2=NNCC2n2cc(Cl)cn2)cc1` (stereo not drawn) [Example (II-1), 3-(4-chlorophenyl)-4-(4-chloropyrazol-1-yl)-4,5-dihydro-1H-pyrazole], the chromatographic logP in series [1] came out at 2.64.

The record behind these values is US20060100260A1, “Substituted pyrazoline carboxanilides for use as pesticides” (priority 2002, published 2006).
